Measurements from patent publication US8507538B2, “Selective heterocyclic sphingosine 1 phosphate receptor modulators” (Receptos, Inc., priority 2009, dated 2013).
pEC50: −log10 of the molar value. Where two headings read alike, the source gives them in different places.

Assays:
S1P4 = molecular target: T1, S1P4 (Homo sapiens, UniProt O95977); experiment: Specificity over other S1P receptors: S1P4-bla TANGO U2OS; format: cell-based; settings: without Forskolin, FreeStyle Expression medium; read-out: S1P4 agonist value (EC50)
T1 construct: Tango fusion (own knowledge: TEV protease site + GAL4-VP16 transcription factor fused to the receptor's C-terminus); host or cells: Tango bla U2OS
T1 sequence (O95977 1-384): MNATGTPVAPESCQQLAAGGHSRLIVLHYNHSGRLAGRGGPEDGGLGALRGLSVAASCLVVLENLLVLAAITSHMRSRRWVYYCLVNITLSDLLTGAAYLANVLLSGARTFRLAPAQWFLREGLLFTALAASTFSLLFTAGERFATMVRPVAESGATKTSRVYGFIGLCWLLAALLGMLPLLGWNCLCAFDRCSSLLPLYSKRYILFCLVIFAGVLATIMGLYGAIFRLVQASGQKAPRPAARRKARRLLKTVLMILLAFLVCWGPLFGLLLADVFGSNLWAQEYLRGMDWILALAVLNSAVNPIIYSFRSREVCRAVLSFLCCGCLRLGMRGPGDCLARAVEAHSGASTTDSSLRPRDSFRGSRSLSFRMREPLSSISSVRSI
Protocol: (§1) Cells were seeded into 384-well black wall/clear bottom plates at 10^4 cells/well/19.5 μl assay media (DMEM-phenol free, 0.5% charcoal/dextran stripped serum, 2 mM glutamine, 0.1 mM NEAA, 1 mM Na-Pyruvate, 25 mM Hepes) and incubated for 18 hrs at 37° C. in 5% CO2. Dose response curves (10-point) were generated in 10 mM Hepes, 0.1% Pluronic F127, in the presence of Forskolin. Cells were treated with 0.5 μl compound in the presence of 2 μM Forskolin for 4 hrs at 37° C. The FRET-based β-lactamase fluorescent substrate (LiveBLAzer™ FRET B/G Loading Kit CC4-AM; Invitrogen) was prepared according to manufacturer's directions, and incubated with cells for 2 hrs at room temperature. Plates were read at Ex:410/Em:458 and Ex:410/Em:522, and the response ratio determined. Data was analyzed by non-linear regression to determine the EC50 for inhibition of Forskolin induced cAMP.
(§2) To assess compound specificity on other S1P receptors the following cell lines were used: S1P2 CRE-bla CHOK1, S1P3-Gα15 NFAT-bla HEK293T (Invitrogen), S1P4-bla TANGO U2OS (Invitrogen), S1P5-bla TANGO U2OS (Invitrogen). The same assay set up for S1P1 was used but without Forskolin. S1P4 and S1P5 assays were performed in FreeStyle Expression medium (Invitrogen). S1P5 cells were incubated for 48 hrs in prior to treatment with compound.

S1P5 = molecular target: T2, S1P5 (Homo sapiens, UniProt Q9H228); experiment: Specificity over other S1P receptors: S1P5-bla TANGO U2OS; format: cell-based; settings: without Forskolin, FreeStyle Expression medium; read-out: S1P5 agonist value (EC50)
T2 construct: Tango fusion (own knowledge: TEV protease site + GAL4-VP16 transcription factor fused to the receptor's C-terminus); host or cells: Tango bla U2OS
T2 sequence (Q9H228 whole entry, the tested form may be a part): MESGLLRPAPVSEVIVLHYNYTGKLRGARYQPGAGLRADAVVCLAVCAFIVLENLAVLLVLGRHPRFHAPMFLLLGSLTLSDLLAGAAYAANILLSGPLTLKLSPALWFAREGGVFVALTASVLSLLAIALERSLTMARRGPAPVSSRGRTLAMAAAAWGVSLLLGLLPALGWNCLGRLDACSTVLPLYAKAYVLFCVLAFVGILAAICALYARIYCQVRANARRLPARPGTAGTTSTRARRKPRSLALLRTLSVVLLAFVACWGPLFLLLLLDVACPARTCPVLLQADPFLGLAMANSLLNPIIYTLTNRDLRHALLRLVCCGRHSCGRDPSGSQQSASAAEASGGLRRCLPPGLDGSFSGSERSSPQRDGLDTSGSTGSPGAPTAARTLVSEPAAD
Protocol: as §1, §2

S1P3 = molecular target: T3, S1P3 (Homo sapiens, UniProt Q99500); experiment: Specificity over other S1P receptors: S1P3-Gα15 NFAT-bla HEK293T; format: cell-based; settings: without Forskolin; read-out: S1P3 agonist value (EC50)
T3 construct: host or cells: NFAT-bla HEK293T co-expressing Gα15
T3 sequence (Q99500 whole entry): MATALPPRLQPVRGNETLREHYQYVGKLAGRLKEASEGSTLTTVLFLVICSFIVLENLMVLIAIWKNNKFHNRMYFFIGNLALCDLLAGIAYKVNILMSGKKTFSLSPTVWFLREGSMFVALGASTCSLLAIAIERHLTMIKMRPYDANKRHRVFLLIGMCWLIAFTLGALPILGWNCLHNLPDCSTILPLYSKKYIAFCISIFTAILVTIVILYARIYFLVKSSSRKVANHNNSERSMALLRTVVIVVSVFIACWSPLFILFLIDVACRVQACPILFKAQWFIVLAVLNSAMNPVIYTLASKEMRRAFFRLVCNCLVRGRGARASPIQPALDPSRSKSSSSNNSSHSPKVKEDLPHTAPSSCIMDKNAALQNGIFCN
Protocol: as §1, §2

S1P2 = molecular target: T4, S1P2 (Homo sapiens, UniProt O95136); experiment: Specificity over other S1P receptors: S1P2 CRE-bla CHOK1; format: cell-based; settings: without Forskolin; read-out: S1P2 agonist value (EC50)
T4 construct: expressed in transfected cells; host or cells: CRE-bla CHOK1
T4 sequence (O95136 whole entry, species assumed): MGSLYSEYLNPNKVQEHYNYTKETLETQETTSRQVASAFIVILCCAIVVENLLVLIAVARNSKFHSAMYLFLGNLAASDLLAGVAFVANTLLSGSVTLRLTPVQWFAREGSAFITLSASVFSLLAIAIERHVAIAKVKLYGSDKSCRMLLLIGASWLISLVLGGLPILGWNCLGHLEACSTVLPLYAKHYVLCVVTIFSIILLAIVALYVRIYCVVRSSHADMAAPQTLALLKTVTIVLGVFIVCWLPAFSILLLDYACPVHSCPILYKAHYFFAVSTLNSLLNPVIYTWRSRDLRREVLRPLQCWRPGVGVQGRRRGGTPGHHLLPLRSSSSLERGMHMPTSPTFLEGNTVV
Protocol: as §1, §2

[1] = test system: CD4 or CD8 positive T cells; experiment: Lymphopenia in rats; format: in vivo; settings: rat, 24 h after a 0.2 mg/kg single dose; for inhibition in vivo at 0.2 mg/kg: CD8 positive, po
Protocol: In rats: Female rats (Simonsen Laboratories, Gilroy Calif.) were housed in an ALAAC accredited facility and the research was approved by the facilities Institutional Animal Care and Use Committee (IACUC). The animals were acclimated to the laboratory for at least 5 days prior to initiation of experiments. Rats (n=3/compound/time-point) were dosed by oral gavage with 1 mg/kg compound formulated in a vehicle consisting of 5% DMSO/5% Tween 20 and 90% 0.1N HCL. Control rats were dosed PO with the vehicle. Whole blood was collected from isoflurane anesthetized rats via the retro-orbital sinus and terminal samples were collected by cardiac puncture into EDTA. Whole blood was incubated with mouse anti-rat CD32 (BD #550271), PE-mouse anti-rat CD45R/B220 (BD #554881), PECy5-mouse anti-rat CD4 (BD #554839), and APC-mouse anti-rat CD8a (eBioscience #17-0084) for 30 minutes on ice. Red blood cells were lysed using BD Pharm. Lyse Lysing buffer (#555899) and white blood cells were analyzed with a BD FACSArray. Lymphopenia was expressed as the % of white blood cells that were CD4 or CD8 positive T cells. The overall lymphopenia response over 24 h was estimated by calculating the area under the effect curve (AUEC) using the linear trapezoidal rule. In some experiments, total lymphocyte counts were determined using a standard impediance based veterinary hematology analyzer (IDEXX Preclinical Research Services, Sacramento, Calif.).
The percentage of lymphopenia at 24 h after a 0.2 mg/kg single dose regiment is reported. […] N/A is not available.

S1P1/EDG1 = S1P1/EDG1 (Homo sapiens, UniProt P21453); experiment: S1P1 CRE-bla CHOK1 reporter assay (inhibition of Forskolin induced cAMP); format: cell-based
Sequence of S1P1/EDG1 (P21453 whole entry): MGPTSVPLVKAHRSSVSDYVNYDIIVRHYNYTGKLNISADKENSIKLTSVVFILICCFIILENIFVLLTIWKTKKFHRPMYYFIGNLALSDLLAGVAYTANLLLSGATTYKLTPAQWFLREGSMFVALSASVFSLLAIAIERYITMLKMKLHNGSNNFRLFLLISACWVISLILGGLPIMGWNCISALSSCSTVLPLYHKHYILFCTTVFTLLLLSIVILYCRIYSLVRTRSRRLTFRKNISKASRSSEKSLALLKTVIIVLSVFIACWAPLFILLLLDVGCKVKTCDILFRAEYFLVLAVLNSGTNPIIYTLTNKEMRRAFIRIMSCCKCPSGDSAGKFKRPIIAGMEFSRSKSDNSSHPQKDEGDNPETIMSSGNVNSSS
Procedure, shortened: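 Stable CRE-bla CHO-K1 clone expressing human S1P1, serum-starved (0.5% stripped serum) 18 h, then treated with compound (10-point curve) plus 2 μM forskolin for 4 h at 37 °C. β-lactamase FRET ratio (458/522 nm) read after 2 h substrate loading; EC50 for inhibition of forskolin-induced cAMP by non-linear regression.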

[2] = test system: CD4 or CD8 positive T cells; experiment: Lymphopenia in rats; format: in vivo; settings: rat, at 24 h after a 3-5 day dosing regimen
[3] = Table 3, read-out: S1P1 agonist value (EC50)
[4] = agonist activity range, Table 2, read-out: S1P1 ACTIVITY

Row | Compound | pEC50 (S1P5) | pEC50 (S1P1/EDG1; [3]) | pEC50 (S1P1/EDG1; [4]) | % Lymphopenia after 24 h (0.2 mg/kg) [1] [%] | further results
1 | CC(C)Oc1ccc(-c2nnc(-c3cccc4c3CC[C@@H]4NS(N)(=O)=O)s2)cc1C#N [Compound 47, (S)-N-(4-(5-(3-cyano-4-isopropoxyphenyl)-1,3,4-thiadiazol-2-yl)-2,3-dihydro-1H-inden-1-yl)sulfamide] | 7.66 | 10.52 | > 10.30 | – | pEC50 (S1P4): < 5.00; pEC50 (S1P3): < 5.00; pEC50 (S1P2): < 5.00; inhibition in vivo at 0.2 mg/kg [1]: 17%
2 | CC(C)Oc1ccc(-c2ncc(-c3cccc4c3CC[C@H]4NC(=O)N3CCOCC3)s2)cc1C#N [Compound 186, (R)-N-(4-(2-(3-cyano-4-isopropoxyphenyl)thiazol-5-yl)-2,3-dihydro-1H-inden-1-yl)morpholine-4-carboxamide] | 6.90 | 9.39 | – | – | pEC50 (S1P3): < 5.00; ED50 ([2]; CD8 positive, read-out: ED50, estimated dose needed to produce 50% lymphopenia): 0.2 mg/kg; inhibition in vivo at 0.2 mg/kg [1]: 25%
3 | CC(C)Oc1ccc(-c2cnc(-c3cccc4c3CCC4O)s2)cc1C#N (stereo not drawn) [Compound 222, 5-(2-(1-hydroxy-2,3-dihydro-1H-inden-4-yl)thiazol-5-yl)-2-isopropoxy-benzonitrile] | – | – | < 8.30 | – | –
4 | CC(C)Oc1ccc(-c2ccc(-c3cccc4c3CCC4O)s2)cc1C#N (stereo not drawn) [Compound 223, 5-(5-(1-hydroxy-2,3-dihydro-1H-inden-4-yl)thiophen-2-yl)-2-isopropoxybenzonitrile] | – | – | 8.30 to 9.30 | – | –
5 | CC(C)Oc1ccc(-c2ccc(-c3cccc4c3CCC4NCCO)s2)cc1C#N (stereo not drawn) [Compound 224, 5-(5-(1-(2-hydroxyethylamino)-2,3-dihydro-1H-inden-4-yl)thiophen-2-yl)-2-isopropoxybenzonitrile] | – | – | < 8.30 | – | –
6 | CC(C)Oc1ccc(-c2ccc(-c3cccc4c3CC[C@H]4N)s2)cc1C#N [Compound 225, (R)-5-(5-(1-amino-2,3-dihydro-1H-inden-4-yl)thiophen-2-yl)-2-isopropoxybenzonitrile] | – | – | < 8.30 | – | –
7 | CC(C)Oc1ccc(-c2cc(-c3cccc4c3CCC4O)cs2)cc1C#N (stereo not drawn) [Compound 226, 5-(4-(1-hydroxy-2,3-dihydro-1H-inden-4-yl)thiophen-2-yl)-2-isopropoxybenzonitrile] | – | – | 8.30 to 9.30 | – | –
8 | CC(C)Oc1ccc(-c2csc(-c3cccc4c3CCC4O)c2)cc1C#N (stereo not drawn) [Compound 227, 5-(5-(1-hydroxy-2,3-dihydro-1H-inden-4-yl)thiophen-3-yl)-2-isopropoxybenzonitrile] | – | – | < 8.30 | – | –
9 | (R)-2-(N-(4-(5-(3-cyano-4-isopropoxyphenyl)-1,3,4-thiadiazol-2-yl)-2,3-dihydro-1H-inden-1-yl)sulfamoyl)-N,N-dimethylacetamide [Compound 43] | 6.35 | 10.15 | – | 40 | –
10 | (R)-N-(4-(2-(3-cyano-4-isopropoxyphenyl)thiazol-5-yl)-2,3-dihydro-1H-inden-1-yl)pyrrolidine-1-carboxamide [Compound 172] | – | – | – | 22 | ED50, estimated dose needed to produce 50% lymphopenia [2]: 0.20 mg/kg
11 | (R)-N-(4-(2-(3-cyano-4-isopropoxyphenyl)thiazol-5-yl)-2,3-dihydro-1H-inden-1-yl)sulfamide [Compound 166] | – | – | – | 47 | ED50, estimated dose needed to produce 50% lymphopenia [2]: 0.07 mg/kg
12 | (R)-N-(4-(5-(3-cyano-4-isopropoxyphenyl)-1,3,4-thiadiazol-2-yl)-2,3-dihydro-1H-inden-1-yl)-2-hydroxyethanesulfonamide [Compound 46] | 6.71 | 9.60 | – | 39 | pEC50 (S1P4): 5.66
13 | (R)-N-((R)-4-(5-(3-cyano-4-isopropoxyphenyl)-1,3,4-thiadiazol-2-yl)-2,3-dihydro-1H-inden-1-yl)-3-(dimethylamino)pyrrolidine-1-carboxamide [Compound 56] | – | – | – | 52 | –
